Laboratory results from patent publication US20240010635A1, “NOVEL INDIRUBIN DERIVATIVES HAVING HETEROBICYCLIC MOIETIES AND THE USE THEREOF” (priority 2022, published 2024).
Like-named read-outs stand apart in the source and are kept apart here.

What was measured:
FLT3 WT = target: T1, FLT3 WT (Homo sapiens, UniProt P36888); assay: ADP-Glo kinase assay, FLT3 WT; format: biochemical; details: recombinant FLT3, ADP-Glo, 120 min room temperature; read-out: Enzyme activity (IC50, nM) FLT3 WT
T1 construct: Recombinant proteins containing the FLT3 and FLT3 (D835Y) domains were purchased from Promega; purchased Promega V4064
T1 sequence (P36888 610-943 limits assumed): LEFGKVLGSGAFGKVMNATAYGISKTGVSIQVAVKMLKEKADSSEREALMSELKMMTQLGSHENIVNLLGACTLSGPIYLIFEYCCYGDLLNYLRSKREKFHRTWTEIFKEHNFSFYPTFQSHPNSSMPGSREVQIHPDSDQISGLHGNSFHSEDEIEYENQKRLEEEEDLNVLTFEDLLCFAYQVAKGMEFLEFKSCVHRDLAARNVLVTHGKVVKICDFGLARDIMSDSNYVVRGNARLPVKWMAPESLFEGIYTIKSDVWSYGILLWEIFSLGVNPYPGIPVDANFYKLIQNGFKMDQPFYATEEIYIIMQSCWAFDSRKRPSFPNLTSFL
Method: FLT3 activity inhibition was measured by ADP-Glo kinase assay (Promega, cat #V9101). ADP-Glo kinase analysis method is an emission ADP detect method which measures kinase activity by quantification of ADP amount produced during kinase reaction and provides uniform high-throughput screening method.
Analysis performed in two steps. First, after kinase reaction, ADP-Glo™ reagent of equal volume was added to finish kinase reaction, and then the rest ATP was exhausted. Second, Kinase Detection Reagent was added to convert ADP to ATP and newly synthesized ATP was measured by luciferase/luciferin reaction at the same time. Generated light was measured by using luminometer. The measured luminescence amount can be applied to the ATP→ADP standard conversion curve to confirm the correlation with the ADP concentration.
Recombinant proteins containing the FLT3 and FLT3 (D835Y) domains were purchased from Promega (cat #V4064, cat #V4514), respectively. According to the manufacturer's instructions, optimal enzyme, ATP, and substrate concentration were established using the ADP-Glo™ Kinase Assay (Promega, USA). Kinase reaction buffer 5× (200 mM Tris-HCl, pH 7.5, 100 mM MgCl2, 0.5 mg/ml BSA) was diluted and used, and the diluted compound of the present invention (5×, 1 μl), FLT3 enzyme or FLT3/D835Y enzyme (2.5×, 2 μl) and substrate/ATP mixture (2.5×, 2 μl), were mixed sequentially and reacted at room temperature for 120 minutes. Then, ADP-Glo™ Reagent (5 μl) was added and reacted for 40 min at room temperature. Finally, after adding a reagent for detection (Kinase Detection Reagent, 10 μl), reacting at room temperature for 30 min, and then phosphorylation of substrate peptide was measured by measuring luciferase signal (Integration time 0.5-1 second) using SpectraMax ID5 reader (Molecular Devices LLC., San Jose, CA, USA). IC50 was calculated by nonlinear regression using Prism version 5.01 (GrapghPad).

MV4-11 = assay: Cell proliferation inhibition in AML cell line MV4-11 (Alamar Blue); format: cell-based; details: Homo sapiens, MV4-11, 72 hours, read-out: Cell proliferation inhibitory activity (GI50) MV4-11
Text: (§1) Cell proliferation inhibition experiments on acute myeloid leukemia (AML) cell lines tested FLT3 inhibitory activity using MV4-11, Molm-13, and Molm-14 cells, which are FLT3-ITD-expressed AML cell lines. The origin of all cell lines is human-derived cell lines, and the place of purchase and culture conditions of each cell line are as follows.
(§2) MV4-11 cells were purchased form the American Type Culture Collection (ATCC, Rockville, MD, USA, cat #CRL-9591), Molm-13 (DSMZ, cat #ACC554), Molm-14 (DSMZ, cat #ACC777), and then cultured in RPMI 1640 medium (Corning Co. 10-040-CV) supplemented with 10% fetal bovine serum, 1% penicillin/streptomycin and 4 mM L-glutamine (Life Technology, GrandIsland, NY).
(§3) Cell viability was evaluated by Resazurin redox-based analysis method with Alamar Blue Assay Kit (Invitrogen, USA). Specifically, for MV4-11, Molm-13 and Molm-14 cells, 8000 cells were plated on 384-well plates in 45 μl of medium. Compounds were treated with dimethyl sulfoxide (DMSO) as a negative control group. After 3 days (72 hours) of compound addition, 5 μl of Alamar Blue kit reagent was added to each well of 384-well plate and incubated at 37° C. for 2 hours in a humidified CO2 incubator. After incubation, fluorescence density (Flu) was measured at a wavelength of 544 nm and 590 nm using SpectraMax iD3 Multi Mode Microplate Reader (Molecular Devices, ID3-STD). GI50 was calculated by nonlinear regression using Prism version 5.01 (GraphPad, LaJolla, CA, USA).

Molm-14 = assay: Cell proliferation inhibition in AML cell line Molm-14 (Alamar Blue); format: cell-based; details: Homo sapiens, Molm-14, 72 hours, read-out: Cell proliferation inhibitory activity (GI50) Molm-14
Text: as §1, §2, §3

Molm-13 = assay: Cell proliferation inhibition in AML cell line Molm-13 (Alamar Blue); format: cell-based; details: Homo sapiens, Molm-13, 72 hours, read-out: Cell proliferation inhibitory activity (GI50) Molm-13
Text: as §1, §2, §3

Question: For `O=C1Nc2ccccc2/C1=C1/Nc2ccccc2/C1=N\OCCN1CC2(CNC2)C1` [Example 1, (2Z,3E)-3-((2-(2,6-diazaspiro[3.3]heptan-2-yl)ethoxy)imino)-[2,3′-biindolinylidene]-2′-one], which IC50 (FLT3 WT) is on record?
Answer: 1.42 nM

Question: And the GI50 (MV4-11)?
Answer: 12400 pM

Question: `O=C1Nc2ccccc2/C1=C1/Nc2ccccc2/C1=N\OCCN[C@H]1[C@@H]2CNC[C@@H]21` [Example 2, (2Z,3E)-3-((2-((1R,5S,6s)-3-azabicyclo[3.1.0]hexan-6-ylamino)ethoxy)imino)-[2,3′-biindolinylidene]-2′-one] was tested. Which IC50 (FLT3 WT) did it give?
Answer: 2.49 nM

Question: What about the GI50 (MV4-11) of the same molecule?
Answer: 7900 pM

Question: Which IC50 (FLT3 WT) does the source give for `N[C@@H]1[C@H]2CN(CCO/N=C3/C(=C4/C(=O)Nc5ccccc54)Nc4ccccc43)C[C@@H]12` [Example 3, (2Z,3E)-3-((2-((1R,5S,6s)-6-amino-3-azabicyclo[3.1.0]hexan-3-yl)ethoxy)imino)-[2,3′-biindolinylidene]-2′-one] here?
Answer: 3.78 nM

Question: What about the GI50 (MV4-11) of the same molecule?
Answer: 90600 pM

Question: Which IC50 (FLT3 WT) does the source give for `O=C1Nc2ccccc2/C1=C1/Nc2ccccc2/C1=N\OCCN1C[C@H]2C[C@@H]1CN2` [Example 4, (2Z,3E)-3-((2-((1R,4R)-2,5-diazabicyclo[2.2.1]heptan-2-yl)ethoxy)imino)-[2,3′-biindolinylidene]-2′-one] here?
Answer: 1.37 nM

Question: What about the GI50 (Molm-14; pM) of the same molecule?
Answer: 30 pM

Question: And the GI50 (Molm-13; pM)?
Answer: 40 pM

Question: Which results are given for `O=C1Nc2ccccc2/C1=C1/Nc2ccccc2/C1=N\OCCN1C[C@@H]2C[C@H]1CN2` [Example 5, (2Z,3E)-3-((2-((1S,4S)-2,5-diazabicyclo[2.2.1]heptan-2-yl)ethoxy)imino)-[2,3′-biindolinylidene]-2′-one]?
Answer: IC50 (FLT3 WT): 1.57 nM; GI50 (Molm-14): 1660 pM; GI50 (MV4-11): 663 pM; GI50 (Molm-13): 1780 pM

Question: Which results are given for `O=C1Nc2ccc(F)cc2/C1=C1/Nc2ccccc2/C1=N\OCCN1CC2(CNC2)C1` [Example 6, (2Z,3E)-3-((2-(2,6-diazaspiro[3.3]heptan-2-yl)ethoxy)imino)-5′-fluoro-[2,3′-biindolinylidene]-2′-one]?
Answer: IC50 (FLT3 WT): 2.44 nM; GI50 (MV4-11): 15600 pM

Question: What does the source list for `O=C1Nc2ccc(F)cc2/C1=C1/Nc2ccccc2/C1=N\OCCN[C@H]1[C@@H]2CNC[C@@H]21` [Example 7, (2Z,3E)-3-((2-((1R,5S,6s)-3-azabicyclo[3.1.0]hexan-6-ylamino)ethoxy)imino)-5′-fluoro-[2,3′-biindolinylidene]-2′-one]?
Answer: IC50 (FLT3 WT): 1.47 nM; GI50 (MV4-11): 5650 pM

Question: `N[C@@H]1[C@H]2CN(CCO/N=C3/C(=C4/C(=O)Nc5ccc(F)cc54)Nc4ccccc43)C[C@@H]12` [Example 8, (2Z,3E)-3-((2-((1R,5S,6s)-6-amino-3-azabicyclo[3.1.0]hexan-3-yl)ethoxy)imino)-5′-fluoro-[2,3′-biindolinylidene]-2′-one] was tested. Which IC50 (FLT3 WT) did it give?
Answer: 1.35 nM

Question: And the GI50 (MV4-11)?
Answer: 90600 pM

Question: Which results are given for `O=C1Nc2ccc(F)cc2/C1=C1/Nc2ccccc2/C1=N\OCCN1C[C@H]2C[C@@H]1CN2` [Example 9, (2Z,3E)-3-((2-((1R,4R)-2,5-diazabicyclo[2.2.1]heptan-2-yl)ethoxy)imino)-5′-fluoro-[2,3′-biindolinylidene]-2′-one]?
Answer: IC50 (FLT3 WT): 3.87 nM; GI50 (Molm-14; pM): 470 pM; GI50 (MV4-11): 260 pM; GI50 (Molm-13; pM): 500 pM

Question: With `O=C1Nc2ccc(F)cc2/C1=C1/Nc2ccccc2/C1=N\OCCN1C[C@@H]2C[C@H]1CN2` [Example 10, (2Z,3E)-3-((2-((1S,4S)-2,5-diazabicyclo[2.2.1]heptan-2-yl)ethoxy)imino)-5′-fluoro-[2,3′-biindolinylidene]-2′-one] as the molecule, how does the IC50 (FLT3 WT) read?
Answer: 2.41 nM

Question: And the GI50 (Molm-14)?
Answer: 1860 pM

Question: What about the GI50 (MV4-11) of the same molecule?
Answer: 685 pM

Question: What about the GI50 (Molm-13) of the same molecule?
Answer: 1390 pM

Question: Which results are given for `O=C1Nc2ccc(Cl)cc2/C1=C1/Nc2ccccc2/C1=N\OCCN1C[C@H]2C[C@@H]1CN2` [Example 11, (2Z,3E)-3-((2-((1R,4R)-2,5-diazabicyclo[2.2.1]heptan-2-yl)ethoxy)imino)-5′-chloro-[2,3′-biindolinylidene]-2′-one]?
Answer: IC50 (FLT3 WT): 4.57 nM; GI50 (Molm-14; pM): 100 pM; GI50 (MV4-11; pM): 40 pM; GI50 (Molm-13; pM): 162 pM

Question: With `O=C1Nc2ccc(Br)cc2/C1=C1/Nc2ccccc2/C1=N\OCCN1C[C@H]2C[C@@H]1CN2` [Example 13, (2Z,3E)-3-((2-((1R,4R)-2,5-diazabicyclo[2.2.1]heptan-2-yl)ethoxy)imino)-5′-bromo-[2,3′-biindolinylidene]-2′-one] as the molecule, how does the IC50 (FLT3 WT) read?
Answer: 4.72 nM

Question: And the GI50 (Molm-14; pM)?
Answer: 170 pM

Question: And the GI50 (MV4-11; pM)?
Answer: 61 pM

Question: And the GI50 (Molm-13; pM)?
Answer: 200 pM

Question: Which results are given for `O=C1Nc2ccccc2/C1=C1/Nc2ccccc2/C1=N\OCC(=O)N1CC2(CNC2)C1` [Example 15, (2Z,3E)-3-((2-oxo-2-(2,6-diazaspiro[3.3]heptan-2-yl)ethoxy)imino)-[2,3′-biindolinylidene]-2′-one]?
Answer: IC50 (FLT3 WT): 3.41 nM; GI50 (MV4-11): 100000 pM

Question: For `O=C(CO/N=C1/C(=C2/C(=O)Nc3ccccc32)Nc2ccccc21)N[C@H]1[C@@H]2CNC[C@@H]21` [Example 16, N-((1R,5S,6s)-3-azabicyclo[3.1.0]hexan-6-yl)-2-(((E)-((Z)-2′-oxo-[2,3′-biindolinylidene]-3-ylidene)amino)oxy)acetamide], which IC50 (FLT3 WT) is on record?
Answer: 3.13 nM

Question: And the GI50 (MV4-11)?
Answer: 5040 pM

Question: For `O=C1Nc2ccccc2/C1=C1/Nc2ccccc2/C1=N\OCC(=O)N1C[C@H]2C[C@@H]1CN2` [Example 17, (2Z,3E)-3-((2-((1R,4R)-2,5-diazabicyclo[2.2.1]heptan-2-yl)-2-oxoethoxy)imino)-[2,3′-biindolinylidene]-2′-one], which IC50 (FLT3 WT) is on record?
Answer: 4.24 nM

Question: What about the GI50 (MV4-11) of the same molecule?
Answer: 440 pM

Question: What does the source list for `O=C1Nc2ccc(F)cc2/C1=C1/Nc2ccccc2/C1=N\OCC(=O)N1CC2(CNC2)C1` [Example 18, (2Z,3E)-5′-fluoro-3-((2-oxo-2-(2,6-diazaspiro[3.3]heptan-2-yl)ethoxy)imino)-[2,3′-biindolinylidene]-2′-one]?
Answer: IC50 (FLT3 WT): 2.15 nM; GI50 (MV4-11): 100000 pM

Question: With `O=C(CO/N=C1/C(=C2/C(=O)Nc3ccc(F)cc32)Nc2ccccc21)N[C@H]1[C@@H]2CNC[C@@H]21` [Example 19, N-((1R,5S,6s)-3-azabicyclo[3.1.0]hexan-6-yl)-2-(((E)-((Z)-5′-fluoro-2′-oxo-[2,3′-biindolinylidene]-3-ylidene)amino)oxy)acetamide] as the molecule, how does the IC50 (FLT3 WT) read?
Answer: 3.13 nM

Question: What about the GI50 (MV4-11) of the same molecule?
Answer: 6780 pM

Question: For `O=C1Nc2ccc(F)cc2/C1=C1/Nc2ccccc2/C1=N\OCC(=O)N1C[C@H]2C[C@@H]1CN2` [Example 20, (2Z,3E)-3-((2-((1R,4R)-2,5-diazabicyclo[2.2.1]heptan-2-yl)-2-oxoethoxy)imino)-5′-fluoro-[2,3′-biindolinylidene]-2′-one], which IC50 (FLT3 WT) is on record?
Answer: 2.94 nM

Question: What about the GI50 (MV4-11) of the same molecule?
Answer: 1320 pM
